According to PubChem BioAssay AID2060890 (Molecular Pharmacology Branch, DTP, NCI, 2025):
Several values for one entry are separate records, joined by “and”; a condition that tells them apart may be missing. Equal entries are not always repeated.

System: LG0703-F948-PDC complex spheroid viability
Assay: Anticancer human tumor LG0703-F948-PDC patient-derived lung adenocarcinoma cell line growth inhibition [RAS]
Settings: for viability, T/C: stronger effect = lower value
Outline: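 Multi-cell-type spheroids: tumor cells plus HUVEC endothelial cells and mesenchymal stem cells. RAS-pathway inhibitors were combined with targeted agents, each dosed in half-log steps down from clinical Cmax, or from 10 microM when Cmax was unknown.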

[1] = curve of first compound, second compound 0.00316 µM
[2] = curve of first compound, second compound 0.01 µM
[3] = curve of first compound, second compound 0.0316 µM
[4] = curve of first compound, second compound 0.1 µM
[5] = curve of first compound, second compound 0.316 µM
[6] = curve of first compound, second compound 1 µM
[7] = second compound 0.00316 µM, first compound 0.0316 µM
[8] = second compound 0.00316 µM, first compound 0.1 µM
[9] = second compound 0.00316 µM, first compound 0.316 µM
[10] = second compound 0.00316 µM, first compound 1 µM
[11] = second compound 0.00316 µM, first compound 3.16 µM
[12] = second compound 0.00316 µM, first compound 10 µM
[13] = second compound 0.01 µM, first compound 0.0316 µM
[14] = second compound 0.01 µM, first compound 0.1 µM
[15] = second compound 0.01 µM, first compound 0.316 µM
[16] = second compound 0.01 µM, first compound 1 µM
[17] = second compound 0.01 µM, first compound 3.16 µM
[18] = second compound 0.01 µM, first compound 10 µM
[19] = second compound 0.0316 µM, first compound 0.0316 µM
[20] = second compound 0.0316 µM, first compound 0.1 µM
[21] = second compound 0.0316 µM, first compound 0.316 µM
[22] = second compound 0.0316 µM, first compound 1 µM
[23] = second compound 0.0316 µM, first compound 3.16 µM
[24] = second compound 0.0316 µM, first compound 10 µM
[25] = second compound 0.1 µM, first compound 0.0316 µM
[26] = second compound 0.1 µM, first compound 0.1 µM
[27] = second compound 0.1 µM, first compound 0.316 µM
[28] = second compound 0.1 µM, first compound 1 µM
[29] = second compound 0.1 µM, first compound 3.16 µM
[30] = second compound 0.1 µM, first compound 10 µM
[31] = second compound 0.316 µM, first compound 0.0316 µM
[32] = second compound 0.316 µM, first compound 0.1 µM
[33] = second compound 0.316 µM, first compound 0.316 µM
[34] = second compound 0.316 µM, first compound 1 µM
[35] = second compound 0.316 µM, first compound 3.16 µM
[36] = second compound 0.316 µM, first compound 10 µM
[37] = second compound 1 µM, first compound 0.0316 µM
[38] = second compound 1 µM, first compound 0.1 µM
[39] = second compound 1 µM, first compound 0.316 µM
[40] = second compound 1 µM, first compound 1 µM
[41] = second compound 1 µM, first compound 3.16 µM
[42] = second compound 1 µM, first compound 10 µM
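Note: spheroids exposed to agents for 7 days.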
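Throughout, for viability, T/C: 100% = DMSO vehicle wells.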

## C[C@@H](NC(=O)c1ncnc(N)c1Cl)c1ncc(C(=O)Nc2cc(C(F)(F)F)c(Cl)cn2)s1
Compound 0.0316 µM
  viability, T/C: 102% and 115% and 92.8%
Compound 0.1 µM
  viability, T/C: 120% [middle of 4 runs]
Compound 0.316 µM
  viability, T/C: 103% [middle of 4 runs]
Compound 1 µM
  viability, T/C: 114% [middle of 4 runs]
Compound 3.16 µM
  viability, T/C: 102% [middle of 4 runs]
Curve of compound
  IC50: > 10 µM

## CC(Nc1ccc2c(c1)OCCn1cc(N3C(=O)OCC3C(F)F)nc1-2)C(N)=O (stereo not given) + C=CC(=O)N1CCN(c2nc(OCC3CCCN3C)nc3c(F)c(-c4nc(N)cc(C)c4C(F)(F)F)c(Cl)cc23)C(C)C1
[1]
  IC50: 1.15 µM
[2]
  IC50: 0.882 µM
[3]
  IC50: 0.987 µM
[4]
  IC50: 0.967 µM
[5]
  IC50: 0.962 µM
[6]
  IC50: 1.19 µM
[7]
  viability, T/C: 91.8%
[8]
  viability, T/C: 84.8%
[9]
  viability, T/C: 64.5%
[10]
  viability, T/C: 53.5%
[11]
  viability, T/C: 34.7%
[12]
  viability, T/C: 14.8%
[13]
  viability, T/C: 99.9%
[14]
  viability, T/C: 83.3%
[15]
  viability, T/C: 62.2%
[16]
  viability, T/C: 49.5%
[17]
  viability, T/C: 32.9%
[18]
  viability, T/C: 14.2%
[19]
  viability, T/C: 98.9%
[20]
  viability, T/C: 86.7%
[21]
  viability, T/C: 66.9%
[22]
  viability, T/C: 47.4%
[23]
  viability, T/C: 34.6%
[24]
  viability, T/C: 13.5%
[25]
  viability, T/C: 105%
[26]
  viability, T/C: 86.3%
[27]
  viability, T/C: 63.9%
[28]
  viability, T/C: 50.9%
[29]
  viability, T/C: 35.2%
[30]
  viability, T/C: 12.9%
[31]
  viability, T/C: 113%
[32]
  viability, T/C: 86.6%
[33]
  viability, T/C: 68%
[34]
  viability, T/C: 44.3%
[35]
  viability, T/C: 34.4%
[36]
  viability, T/C: 14.8%
[37]
  viability, T/C: 108%
[38]
  viability, T/C: 96.5%
[39]
  viability, T/C: 69.2%
[40]
  viability, T/C: 53.5%
[41]
  viability, T/C: 36%
[42]
  viability, T/C: 11.7%

## CC1(O)CCCC1n1c(=O)c(C(F)F)cc2cnc(NC3CCN(S(C)(=O)=O)CC3)nc21 (stereo not given) + C=CC(=O)N1CCN(c2nc(OCC3CCCN3C)nc3c(F)c(-c4nc(N)cc(C)c4C(F)(F)F)c(Cl)cc23)C(C)C1
[1]
  IC50: 4.29 µM
[2]
  IC50: 4.16 µM
[3]
  IC50: 4.67 µM
[4]
  IC50: 4.25 µM
[5]
  IC50: 4.34 µM
[6]
  IC50: 4.13 µM
[7]
  viability, T/C: 96.7%
[8]
  viability, T/C: 91.2%
[9]
  viability, T/C: 86.1%
[10]
  viability, T/C: 76.8%
[11]
  viability, T/C: 66.9%
[12]
  viability, T/C: 14.1%
[13]
  viability, T/C: 103%
[14]
  viability, T/C: 103%
[15]
  viability, T/C: 90.1%
[16]
  viability, T/C: 72.9%
[17]
  viability, T/C: 69%
[18]
  viability, T/C: 15.8%
[19]
  viability, T/C: 97.8%
[20]
  viability, T/C: 104%
[21]
  viability, T/C: 85.9%
[22]
  viability, T/C: 76.7%
[23]
  viability, T/C: 75.5%
[24]
  viability, T/C: 14.7%
[25]
  viability, T/C: 107%
[26]
  viability, T/C: 104%
[27]
  viability, T/C: 88%
[28]
  viability, T/C: 75.2%
[29]
  viability, T/C: 73.9%
[30]
  viability, T/C: 10.9%
[31]
  viability, T/C: 106%
[32]
  viability, T/C: 89.5%
[33]
  viability, T/C: 94.9%
[34]
  viability, T/C: 75.7%
[35]
  viability, T/C: 72%
[36]
  viability, T/C: 9.28%
[37]
  viability, T/C: 115%
[38]
  viability, T/C: 105%
[39]
  viability, T/C: 92.5%
[40]
  viability, T/C: 76.4%
[41]
  viability, T/C: 74.9%
[42]
  viability, T/C: 6.44%
